In US20060241150A1, “P38 kinase inhibitor compositions and methods of using the same” (priority 2003, published 2006):
“Also recorded” adds a separate entry of the source.

Assays:
p38 MAPK = assay: Immunoblot of p38 and phospho-p38 in Nef treated Jurkat cells; format: cell-based, human; conditions: 1 μM
Experimental: Experimental cells were washed with ice-cold PBS, and the cells were lysed in protein lysis buffer (20 mM Tris (pH7.4), 150 mM NaCl, 1 mM EDTA, 1 mMEGTA, 1% triton, 2.5 mM sodium pyrophosphate, 1 mM □-glycerolphasphate, 1 mM Na3Vp4, 1 μM/ml leupeptin and 1 mM phenyl methyl-sulfonyl fluoride). After a brief sonication, the lysates were clarified by centrifugation at 10,000 rpm and protein content was measured by the Bradford method (Bio-Rad, CA).
For Western blot analysis 50 μg of protein per lane was loaded onto acrylamide gels and separated by 12% SDS-PAGE and blotted to PVDF tmnsfer membrane. […] Further, the membrane was washed thoroughly using lxWestern re-probe buffer (Geno Tech, MO) and re immunoblotted with anti-actin (Calbiochem, CA) antibody, which recognizes the actin expression in cultured and serves cells as a positive control for gene expression and as an internal standard.

p38 MAP Kinase = p38 MAP Kinase (Homo sapiens, UniProt Q16539); conditions: cited from earlier work
NF-κB = NF-κB dependent luciferase reporter assay in Nef transfected Jurkat cells; format: cell-based, human; conditions: 1 μM; 24 hours
Experimental: (§1) Jurkat cells (1×10^6) were seeded onto a 60 mm culture dish (Falcon) and elctrotransfected the cells next day with NF-κB or AP-1 dependent reporter plasmid (10 μg) with pNef (10 μg), and/with or without Cpd4 (1 μM). After 24 hours, transfected cells were lysed with Reporter lysis Buffer (RLB) according to the manufacturer's instructions (Roche, USA). Luciferase activity was measured via LUMAT LB9501 (Berthold, USA). β-Gal levels were used to normalize for transfection efficiency with the chemiluminescent β-Gal reporter gene Assay kit (Roche, USA).

[1] = test system: HIV-1 induced apoptosis in human PBMCs; assay: Annexin V-FITC FACS analysis of HIV-1 induced apoptosis in infected PBMCs; format: cell-based; conditions: for inhibition of apoptosis induced by 4 subtype divergent primary HIV viral isolates: FIG. 1C
Experimental: (§2) The human CD4^+ T cell line Jurkat, or the monocyte line U937 were obtained from the American Type Culture Collection (Rockville, Md.). Cells were passaged in RPMI1640 (Gibco-BRL, MD) supplemented with 10% FBS, 2 mM L-glutamine, 100 U/ml penicillin G, and 100 μg/ml streptomycin maintained at 37° C. and 5% CO2 and verified routinely to certify that they were Mycoplasma negative. Human PBMCs were isolated from healthy HIV-seronegative donors by Ficoll-Hypaque separation (Pharmacia Biotech AB, Sweden). Peripheral blood mononuclear cells (PBMCs) from healthy adults were incubated for 2 days with 5 μg/ml phytohemagglutinin (PHA, Sigma) before the addition of 5 U/ml of human recombinant interleukin-2 (hrIL-2; R&D system, MN).
Viruses that were assayed in these studies included the pNL 4-3 (dual tropic) virus, which uses both CCR5 & CxCR4 receptors, and 89.6 (dual tropic), which uses CCR5 & CxCR4 receptors. In addition clade specific viruses were studied and these were obtained through the NIH AIDS research and Reference Reagent Program. For infection studies human PBMCs were isolated from normal, sero-negative donors, and infection was accomplished by incubating target cells with HIV-1 virus at a concentration of 100 TCID50/10^6 cells/ml. Culture supernatant was collected at 6, 12 and 24 hr intervals and assayed for virus production by measuring the p24 antigen released into the medium by ELISA (Coulter, FL) according to the manufacturer's instructions. Some data are presented as mean±SEM. For data presented as percent change, the base line (medium alone) value was subtracted from the value of each experimental condition as described in the legend.
(§3) FACS analysis was performed to identify cells undergoing apoptosis. Equal numbers of cells from each test group were collected for analysis. Apoptosis in experimental cells was analyzed by using an Annexin-V assay kit from PharMingen (CA). Data was analyzed by the CELL Quest program (Beckton-Dickinson, CA). Caspase 3 activity was determined using Caspase-3/CPP32 colorimetric protease assay kit according to the manufacturer's instructions (MBL, Nagoya, Japan).

Caspase 3 = assay: Caspase-3/CPP32 colorimetric protease assay on lysates of HIV-1 infected cells; format: cell-based, human; conditions: 89.6 or pNL4-3 virus; FIG. 1D
Experimental: as §3

[2] = test system: apoptosis of CD8+ T cells co-cultured with HIV infected macrophages; assay: Bystander CD8+ T cell apoptosis induced by HIV infected macrophages (Annexin V); format: cell-based, human; conditions: 1 μM; latex bead stimulated 89.6 infected macrophages with autologous CD8+ T cells
Experimental: Monocyte-derived macrophages (MDM) were prepared from PBMCs obtained from healthy donors and incubated at 37° C. in polystyrene T-75 flasks for 4-10 hrs at 37° C. After the incubation the cells were washed with RPMI 1640 for 3 times to remove non-adherent cells. The adherent monocytes were detached with ethylene diamine tetra-acetic acid (EDTA) and the purity of the monocyte cell populations thus isolated was >98% as determined by FACS staining for CD14^+. The CD14^+ positive cells were incubated in 6-well plates at a density of 1×10^6 cells/ml in RPMI medium supplemented with 10% human serum.
Human PBMC's were isolated from healthy HIV-seronegative donors as described above. Purified CD8^+ T cells were isolated from PBMC by negative immunoselection using magnetic beads (Dynal, CA), for depletion of CD4^+ T cells. The puity of the isolated CD8+ T cells was determined to be by flow >99% pure. MDM were purified from freshly isolated PBMC as described above. MDM cells were cultured in 6 well plates at 0.5×10^6 cells/ml/well with 10 ng/ml M-CSF (R&D systems, MN) in RPMI 1640/10% Human serum. […] The analysis was performed on a gated CD8^+ T-cells (R1) and further CD8^+ positive cells were analyzed for the CD8^+/Annexin V positive cells (R2 population) in all experimental samples to further analysis the Apoptosis.

[3] = test system: Nef mediated FasL expression in human PBMCs; assay: p24gag / FasL flow cytometry in PBMCs infected with Nef positive pNL4-3 virus; format: cell-based; conditions: 1 μM; PBMCs infected with pNL4-3 Wt (Nef positive) virus
From the text: (§4) Constructs containing Nef were generated using overlap extension PCR at the indicated codons and were cloned into the pCDNA3.1 vector (InVitrogen, CA). The HIV-1 proviral infectious vector pNL4-3 was obtained through the NIH AIDS research and Reference Reagent Program. This vector has been rendered Nef deficient by 5′ frame shift mutation in the Nef region (He, J., Choe, et al, J. Virol. 69, 6705-6711 (1995) which is incorporated herein by reference).
To prepare infectious viral stocks, HIV-1 proviral DNA (pNL4-3 Wt and pNL4-3 and Nef delta) were generated as described Muthumani, K., et al, Journal of Biol. Chem. 277: 37820-37831 (2002). The viral titers were determined by infection of the human T cell line Jurkat using serially diluted virus supernatant. […] Viral stocks were normalized for virus content by infection and titration and stocks were stored in the presence of 10% FBS in aliquots at −80° C. until their use.
(§5) Single cell suspensions were washed in PBS (pH 7.2) containing 0.2% bovine serum albumin and 0.1% NaN3. Cells were incubated with PE labeled […]-CD95L antibody (NOK-1, 0.05 μg/ml, BD Pharmingen, CA, USA) antibody for 60 minutes at 4° C. Cells were washed with PBS and fixed with 2% paraformaldehyde and resuspended in 200 μl PBS and subjected to FACS (FL2 histogram) analysis (Beckton Dickinson, CA). Data were analyzed using the CELL Quest program (Beckton-Dickinson, CA).

[4] = test system: Nef driven FasL expression in Jurkat cells; assay: FasL expression in Jurkat cells transfected with pNef; format: cell-based, human
From the text: as §4, §5

[5] = test system: FasL expression in HIV-infected PBMCs; assay: FasL expression by flow cytometry in HIV-infected PBMCs; format: cell-based, human; conditions: 1 μm; PBMC's; 89.6 or pNL4-3
Experimental: as §2
(§6) Viruses that were assayed in these studies included the pNL 4-3 (dual tropic) virus, which uses both CCR5 & CxCR4 receptors, and 89.6 (dual tropic), which uses CCR5 & CxCR4 receptors. In addition clade specific viruses were studied and these were obtained through the NIH AIDS research and Reference Reagent Program. […]
(§7) Single cell suspensions were washed in PBS (pH 7.2) containing 0.2% bovine serum albumin and 0.1% NaN3. […] Data were analyzed using the CELL Quest program (Beckton-Dickinson, CA).

[6] = test system: FasL expression in HIV-infected Jurkat T cells; assay: FasL expression by flow cytometry in HIV-infected Jurkat T cells; format: cell-based, human; conditions: 1 μm, 89.6 or pNL4-3
Experimental: as §2, §6, §7

AP-1 = AP-1 dependent luciferase reporter assay in Nef transfected Jurkat cells; format: cell-based, human; conditions: 1 μM; 24 hours
Experimental: as §1

c-Jun = assay: Immunoblot of c-Jun in nuclear extracts of Nef treated cells; format: cell-based, human; conditions: 1 μM
Experimental: Experimental cells were washed with ice-cold PBS, and the cells were lysed in protein lysis buffer (20 mM Tris (pH7.4), 150 mM NaCl, 1 mM EDTA, 1 mMEGTA, 1% triton, 2.5 mM sodium pyrophosphate, 1 mM […]-glycerolphasphate, 1 mM Na3Vp4, 1 μM/ml leupeptin and 1 mM phenyl methyl-sulfonyl fluoride). After a brief sonication, the lysates were clarified by centrifugation at 10,000 rpm and protein content was measured by the Bradford method (Bio-Rad, CA). Nuclear extracts were prepared using NE-PER nuclear and cytoplasmic extraction reagents (Pierce, USA) and the protein concentration of the nuclear extract was determined by BCA-200 protein assay kit (Pierce, USA) assayed following the manufacturer's instructions.
For Western blot analysis 50 μg of protein per lane was loaded onto acrylamide gels and separated by 12% SDS-PAGE and blotted to PVDF tmnsfer membrane. Immunoblot was carried out using the primary antibody (c-Jun, Phospho-p38 MAP Kinase (Thr180/Tyr182); Cell Signaling, MA, USA) and detected with secondary HRP-conjugated anti-rabbit IgG using Amersham ECL system. Further, the membrane was washed thoroughly using lxWestern re-probe buffer (Geno Tech, MO) and re immunoblotted with anti-actin (Calbiochem, CA) antibody, which recognizes the actin expression in cultured and serves cells as a positive control for gene expression and as an internal standard.

Sequence of p38 MAP Kinase (Q16539 whole entry): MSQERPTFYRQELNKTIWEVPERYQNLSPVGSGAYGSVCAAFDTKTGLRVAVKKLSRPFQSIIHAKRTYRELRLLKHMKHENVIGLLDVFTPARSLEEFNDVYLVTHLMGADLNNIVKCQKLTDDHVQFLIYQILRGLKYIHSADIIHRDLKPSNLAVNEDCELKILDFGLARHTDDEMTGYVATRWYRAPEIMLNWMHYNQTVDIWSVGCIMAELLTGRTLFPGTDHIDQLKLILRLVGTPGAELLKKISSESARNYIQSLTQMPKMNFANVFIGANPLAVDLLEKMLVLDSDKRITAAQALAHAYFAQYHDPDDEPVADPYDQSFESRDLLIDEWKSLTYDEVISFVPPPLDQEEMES

| SMILES | total levels of p38 (p38 MAPK) | Nef induced phosphorylation of p38 (p38 MAPK; 15-min exposure) | inhibition of p38 MAP Kinase (p38 MAP Kinase; at 1 μM concentrations) | anti-p38 activity compared with SB203580 (p38 MAP Kinase) | blocking of Nef activation of NF-κB reporter (NF-κB) | inhibition of apoptosis driven by virus (Annexin V-FITC) ([1]; 1 μM, 89.6 or pNL4-3 virus, 4 days post infection) | inhibition of apoptosis induced by 4 subtype divergent primary HIV viral isolates ([1]; 1 μM) | inhibition of Caspase 3 activity (Caspase 3) [%] | blocking of bystander CD8+ T cell apoptosis [2] | inhibition of Nef mediated FasL expression [3] | inhibition of Nef driven induction of FasL [4] | inhibition of FasL induction [5] | inhibition of FasL induction [6] | blocking of Nef activation of AP-1 reporter (AP-1) | Nef mediated phosphorylation / activation of c-Jun (c-Jun) | inhibition at 1 µM ([1]; Homo sapiens, PBMC, 96 h, read-out: inhibition of apoptosis driven by virus (Annexin V-FITC)) [%] |
| --- | --- | --- | --- | --- | --- | --- | --- | --- | --- | --- | --- | --- | --- | --- | --- | --- |
| OCCC#Cc1nc(-c2ccc(F)cc2)c(-c2ccncc2)n1CCCc1ccccc1 [Cpd4, 4-(4-Fluorophenyl)-2-(4-hydroxybutyn-1-yl)-1-(3-phenylpropyl)-5-(4-pyridyl)imidazole] | did not alter the total levels of p38 | no detectable increase in the phosphorylation of p38 | inhibit p38 MAP Kinase | higher anti-p38 activity | effectively blocked this effect | over 80% | could inhibit apoptosis | ~80 | effectively blocked bystander apoptosis; also recorded: could prevent Nef driven apoptosis of bystander cells | aborted completely; also recorded: completely inhibited | potent inhibition of Nef driven induction of FasL; also recorded: thoroughly repressed Nef-induced FasL expression; also recorded: highly suppressed; also recorded: could prevent Nef driven FasL activation | Strong inhibition of FasL induction; also recorded: severely repressed the surface expression of FasL | Strong inhibition of FasL induction; also recorded: severely repressed the surface expression of FasL | effectively blocked this effect | decrease in the phosphorylated status of c-Jun; also recorded: can be blocked |  |
| C[S+]([O-])c1ccc(-c2nc(-c3ccc(F)cc3)c(-c3ccncc3)[nH]2)cc1 (stereo not drawn) [SB203580, 4-[5-(4-Fluoro-phenyl)-2-(4-methanesulfinyl-phenyl)-3H-imidazol4-yl]-pyridine, reference compound] |  |  |  |  |  |  | could inhibit apoptosis | ~50 |  |  |  |  |  |  |  | > 50 |
